Results as given in PMC8256334, “Simultaneous Determination of a Novel PD-L1 Inhibitor, IMMH-010, and Its Active Metabolite, YPD-29B, in Rat Biological Matrices by Polarity-Switching Liquid Chromatography-Tandem Mass Spectrometry: Application to ADME Studies” (Frontiers in Pharmacology, 2021).
Values joined by “and” are separate entries in the source; they are usually repeats but may differ in a detail not shown here. Identical values can stand only once.

What was measured:
[1] = test system: various carcinoma xenograft models; settings: cited from earlier work
[2] = Excretion study in rats (urine and feces); assay type: in vivo, Sprague-Dawley rats; settings: for excretion in feces, % Of administered dose / excretion in urine, % Of administered dose: i.g. IMMH-010 maleate 10 mg/kg, n = 5; for share of the dose recovered in the urine and feces as this analyte: urine and feces within 72 h, rats, oral IMMH-010 maleate
Experimental: Female Sprague-Dawley rats (200 ± 20 g, Vital River, Beijing, China) were kept in standard environmental conditions. Rats were fasted overnight with free access to water and randomly assigned to different groups before the experiments. All animal protocols were approved by the Institute Animal Care and Welfare Committee of the Institute of Materia Medica, Chinese Academy of Medical Sciences and Peking Union Medical College.
After i. g. administration of IMMH-010 maleate (10 mg/kg), rats were housed in separate metabolite cages to collect their urine and feces: 0–12, 12–24, 24–36, 36–48, and 48–72 h for urine and 0–24, 24–48, and 48–72 h for feces. Fecal samples were dried in air. Urine samples were stored at −20°C prior to analysis.

| SMILES | antitumor activity [1] | excretion in feces, % Of administered dose ([2]; time 24 h) [% Of administered dose] | excretion in feces, % Of administered dose ([2]; time 48 h) [% Of administered dose] | excretion in feces, % Of administered dose ([2]; time 72 h) | share of the dose recovered in the urine and feces as this analyte [2] [%] | excretion in urine, % Of administered dose ([2]; time 12 h) [% Of administered dose] | excretion in urine, % Of administered dose ([2]; time 24 h) [% Of administered dose] | excretion in urine, % Of administered dose ([2]; time 36 h) [% Of administered dose] | excretion in urine, % Of administered dose ([2]; time 48 h) [% Of administered dose] | excretion in urine, % Of administered dose ([2]; time 72 h) |
| --- | --- | --- | --- | --- | --- | --- | --- | --- | --- | --- |
| CC(C)OC(=O)C(CO)NCc1cc(Cl)c(OCc2cccc(-c3ccccc3)c2Br)cc1OCc1cccnc1 (centres unmarked) [IMMH-010, 2-[4-(2-bromo-biphenyl-3-ylmethoxy)-5-chloro-2-(pyridin-3-ylmethoxy)-benzylamino]-3-hydroxy-propionic acid isopropyl ester] | significant antitumor activity | 6.97 ± 5.69 | 7.99 ± 5.66 | 7.99 % Of administered dose and 7.99 ± 5.66 % Of administered dose | 7.99 | – | – | – | – | – |
| O=C(O)[C@H](CO)NCc1cc(Cl)c(OCc2cccc(-c3ccccc3)c2Br)cc1OCc1cccnc1 [YPD-29B] | – | 14.56 ± 8.45 | 19.42 ± 6.85 | 19.65 % Of administered dose and 19.65 ± 6.76 % Of administered dose | 20.82 | 0.52 ± 0.15 | 0.63 ± 0.15 | 0.71 ± 0.17 | 0.85 ± 0.36 | 1.17 % Of administered dose and 1.17 ± 0.91 % Of administered dose |
